Measured values as given in patent US20230019491A1, “PYRIMIDINE TBK/IKKe INHIBITOR COMPOUNDS AND USES THEREOF” (Merck Patent GmbH, priority 2017, published 2023).

Legend:
[1] = biological target: T1, IKKε (Homo sapiens, UniProt Q14164); assay: IKKε biochemical assay; conditions: 10 point 1:4 dose response, 30 uM top concentration, 90 min at 25° C., LabChip EZ Reader II; read-out: IKKε_IC50
T1 sequence (Q14164 1-716): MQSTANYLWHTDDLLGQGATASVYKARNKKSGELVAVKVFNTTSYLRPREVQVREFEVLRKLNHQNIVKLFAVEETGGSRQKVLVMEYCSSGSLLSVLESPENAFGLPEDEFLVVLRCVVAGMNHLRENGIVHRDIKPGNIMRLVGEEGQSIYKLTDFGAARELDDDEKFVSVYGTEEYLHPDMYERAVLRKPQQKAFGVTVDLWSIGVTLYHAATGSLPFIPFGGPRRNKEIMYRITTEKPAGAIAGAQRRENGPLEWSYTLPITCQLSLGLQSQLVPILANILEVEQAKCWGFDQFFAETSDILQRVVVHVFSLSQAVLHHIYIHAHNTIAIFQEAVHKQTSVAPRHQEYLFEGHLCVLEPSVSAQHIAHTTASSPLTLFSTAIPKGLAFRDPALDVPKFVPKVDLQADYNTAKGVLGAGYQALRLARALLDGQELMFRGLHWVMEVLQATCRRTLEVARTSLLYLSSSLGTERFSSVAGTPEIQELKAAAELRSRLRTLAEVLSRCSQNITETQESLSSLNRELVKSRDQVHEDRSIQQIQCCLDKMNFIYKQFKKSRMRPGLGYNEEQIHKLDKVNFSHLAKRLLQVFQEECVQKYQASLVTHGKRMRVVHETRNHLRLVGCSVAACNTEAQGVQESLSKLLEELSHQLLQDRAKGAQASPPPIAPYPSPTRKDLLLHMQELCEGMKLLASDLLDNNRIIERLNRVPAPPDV
Method: (§1) Test compounds were transferred into Labcyte polypropylene 384 well plates (P055-25) and diluted to 3 mM using DMSO. […] 100 uM of a reference compound (1 uM final high concentration). Backfilling was performed if necessary so that all wells contain 1% DMSO final:
(§2) add 75 nl DMSO/well into columns 1, 2 and 24 using Labcyte Echo. add 75 nl 1.0 mM staurosporine/well into column 23 using Labcyte Echo (10 uM final) add 4.5 ul enzyme/well using multidrop dispenser add 3 ul substrate/well using multidrop dispenser incubate at 25° C. for 90 min. add 7.5 ul 2× stop buffer read on labchip ez reader II using IKKε.
(§3) Raw data files were opened in the Caliper LabChip Reviewer program (Version 3.0.265.0 SP2) and peak assignments were adjusted to reflect “substrate first” with the software's post-run analysis options. A spline-fit baseline was applied using the software's analysis algorithm.

[2] = biological target: T2, TBK1 (Homo sapiens, UniProt Q9UHD2); assay: TBK biochemical assay; conditions: 10 point 1:4 dose response, 30 uM top concentration, 90 min at 25° C., LabChip EZ Reader II; read-out: TBK1_IC50
T2 sequence (Q9UHD2 1-729): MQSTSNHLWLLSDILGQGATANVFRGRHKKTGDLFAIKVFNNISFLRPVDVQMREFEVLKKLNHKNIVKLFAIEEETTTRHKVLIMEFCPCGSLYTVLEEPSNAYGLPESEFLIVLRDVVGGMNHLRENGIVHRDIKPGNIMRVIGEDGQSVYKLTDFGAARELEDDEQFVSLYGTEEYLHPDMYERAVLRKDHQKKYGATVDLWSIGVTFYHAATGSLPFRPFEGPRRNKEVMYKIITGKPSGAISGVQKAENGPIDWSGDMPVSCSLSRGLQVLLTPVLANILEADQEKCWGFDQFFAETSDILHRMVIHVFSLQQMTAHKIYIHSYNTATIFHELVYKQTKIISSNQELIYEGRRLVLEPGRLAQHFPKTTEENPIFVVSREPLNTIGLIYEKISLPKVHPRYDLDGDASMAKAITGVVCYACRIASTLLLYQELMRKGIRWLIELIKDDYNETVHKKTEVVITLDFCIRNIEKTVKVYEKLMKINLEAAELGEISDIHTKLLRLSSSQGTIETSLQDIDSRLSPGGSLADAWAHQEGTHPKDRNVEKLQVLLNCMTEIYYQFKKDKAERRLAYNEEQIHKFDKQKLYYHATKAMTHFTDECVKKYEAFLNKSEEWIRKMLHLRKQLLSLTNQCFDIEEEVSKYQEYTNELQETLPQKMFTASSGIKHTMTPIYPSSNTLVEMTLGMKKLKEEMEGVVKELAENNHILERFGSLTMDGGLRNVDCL
Method: as §1
as §2, with “C. in Heidolph incubator” for “C.”, “buffer using multidrop dispenser” for “buffer”, “TBK1.job” for “IKKε.”
as §3

| IC50 [1] [µM] | IC50 [2] [µM] | SMILES |
| --- | --- | --- |
| < 0.1 | < 0.1 | COc1nc(Nc2nccc(-c3ccc(OC4CCOCC4)c(C#N)c3)n2)ccc1C(=O)N1CC2COCC2C1 (stereo not shown) [Example 12, 5-(2-[[5-([hexahydro-1H-furo[3,4-c]pyrol-5-yl]carbonyl)-6-methoxypyridin-2-yl]amino]pyrimidin-4-yl)-2-(oxan-4-yloxy)benzonitrile] |
| < 0.1 | < 0.1 | COc1nc(Nc2nccc(-c3ccc(OC4CCOCC4)c(C#N)c3)n2)ccc1C(=O)N1CCC(C(=O)O)CC1 [Example 13] |
| < 0.1 | < 0.1 | COc1nc(Nc2nccc(-c3ccc(OC4CCOCC4)c(C#N)c3)n2)ccc1C(=O)NC1CCN(C)CC1 [Example 14, 6-([4-[3-cyano-4-(oxan-4-yloxy)phenyl]pyrimidin-2-yl]amino)-2-methoxy-N-(1-methylpiperidin-4-yl)pyridine-3-carboxamide] |
| < 0.1 | < 0.1 | COc1nc(Nc2nccc(-c3ccc(OC4CCOCC4)c(C#N)c3)n2)ccc1C(=O)N1CCN(CCO)CC1 [Example 15, 5-(2-{5-[4-(2-Hydroxy-ethyl)-piperazine-1-carbonyl]-6-methoxy-pyridin-2-ylamino}-pyrimidin-4-yl)-2-(tetrahydro-pyran-4-yloxy)-benzonitrile] |
| < 0.1 | < 0.1 | COc1nc(Nc2nccc(-c3ccc(OC4CCOCC4)c(C#N)c3)n2)ccc1C(=O)N1CC2CCC1CN2C (stereo not shown) [Example 18, 5-(2-[[6-methoxy-5-([5-methyl-2,5-diazabicyclo[2.2.2]octan-2-yl]carbonyl)pyridin-2-yl]amino]pyrimidin-4-yl)-2-(oxan-4-yloxy)benzonitrile] |
| < 0.1 | < 0.1 | COc1nc(Nc2nccc(-c3ccc(OC4CCOCC4)c(C#N)c3)n2)ccc1C(=O)N[C@H]1[C@@H]2C[C@H]1CN(C)C2 [Example 19, 6-([4-[3-cyano-4-(oxan-4-yloxy)phenyl]pyrimidin-2-yl]amino)-2-methoxy-N-[(1R,5S,6R)-3-methyl-3-azabicyclo[3.1.1]heptan-6-yl]pyridine-3-carboxamide] |
| < 0.1 | < 0.1 | COc1nc(Nc2nccc(-c3ccc(OC4CCOCC4)c(C#N)c3)n2)ccc1C(=O)N[C@@H]1[C@@H]2C[C@H]1CN(C)C2 [Example 20, 6-([4-[3-cyano-4-(oxan-4-yloxy)phenyl]pyrimidin-2-yl]amino)-2-methoxy-N-[(1R,5S,6S)-3-methyl-3-azabicyclo[3.1.1]heptan-6-yl]pyridine-3-carboxamide] |
| 0.1 to 1 | 0.1 to 1 | CN(C)C(=O)c1ccc(Nc2nccc(-c3ccc(OC4CCOCC4)c(C#N)c3)n2)nc1 [Example 22, 6-([4-[3-cyano-4-(oxan-4-yloxy)phenyl]pyrimidin-2-yl]amino)-N,N-dimethylpyridine-3-carboxamide] |
| < 0.1 | < 0.1 | CN(C)C(=O)c1ccc(Nc2nccc(-c3ccc(OC4CCOCC4)c(C#N)c3)n2)cn1 [Example 23, 5-([4-[3-cyano-4-(oxan-4-yloxy)phenyl]pyrimidin-2-yl]amino)-N,N-dimethylpyridine-2-carboxamide] |
| 0.1 to 1 | 0.1 to 1 | COc1cc(Nc2nccc(-c3ccc(OC4CCOCC4)c(C#N)n3)n2)ncc1C(=O)N(C)C [Example 24, 6-([4-[6-cyano-5-(oxan-4-yloxy)pyridin-2-yl]pyrimidin-2-yl]amino)-4-methoxy-N,N-dimethylpyridine-3-carboxamide] |
| < 0.1 | < 0.1 | COc1cc(Nc2nccc(-c3ccc(OC4CCOCC4)c(C#N)n3)n2)cnc1C(=O)N(C)C [Example 25, 5-([4-[6-cyano-5-(oxan-4-yloxy)pyridin-2-yl]pyrimidin-2-yl]amino)-3-methoxy-N,N-dimethylpyridine-2-carboxamide] |
| < 0.1 | < 0.1 | COc1nc(Nc2nccc(-c3ccc(OC4CCOCC4)c(C#N)n3)n2)ccc1C(=O)N(C)C [Example 26, 6-([4-[6-cyano-5-(oxan-4-yloxy)pyridin-2-yl]pyrimidin-2-yl]amino)-2-methoxy-N,N-dimethylpyridine-3-carboxamide] |
| 0.1 to 1 | 0.1 to 1 | CN(C)C(=O)c1ccc(Nc2nccc(-c3ccc(OC4CCOCC4)c(C#N)n3)n2)nc1 [Example 27, 6-([4-[6-cyano-5-(oxan-4-yloxy)pyridin-2-yl]pyrimidin-2-yl]amino)-N,N-dimethylpyridine-3-carboxamide] |
| < 0.1 | < 0.1 | CN(C)C(=O)c1ccc(Nc2nccc(-c3ccc(OC4CCOCC4)c(C#N)n3)n2)cn1 [Example 28, 5-([4-[6-cyano-5-(oxan-4-yloxy)pyridin-2-yl]pyrimidin-2-yl]amino)-N,N-dimethylpyridine-2-carboxamide] |
| < 0.1 | < 0.1 | COc1nc(Nc2nccc(-c3ccc(OC4CCOCC4)c(C#N)n3)n2)ccc1C(=O)N1CCCCC1 [Example 30, 6-[2-([6-methoxy-5-[(piperidin-1-yl)carbonyl]pyridin-2-yl]amino)pyrimidin-4-yl]-3-(oxan-4-yloxy)pyridine-2-carbonitrile] |
| < 0.1 | < 0.1 | COc1nc(Nc2nccc(-c3ccc(OC4CCOCC4)c(C#N)n3)n2)ccc1C(=O)N1CCN(C)CC1 [Example 31, 6-[2-([6-methoxy-5-[(4-methylpiperazin-1-yl)carbonyl]pyridin-2-yl]amino)pyrimidin-4-yl]-3-(oxan-4-yloxy)pyridine-2-carbonitrile] |

| SMILES | IC50 [1] [µM] | IC50 [2] [µM] |
| --- | --- | --- |
| COc1nc(Nc2nccc(-c3ccc(OC4CCOCC4)c(C#N)c3)n2)ccc1C(=O)N1C2CCCC1COC2 [Example 16, 5-(2-[[6-methoxy-5-([3-oxa-9-azabicyclo[3.3.1]nonan-9-yl]carbonyl)pyridin-2-yl]amino]pyrimidin-4-yl)-2-(oxan-4-yloxy)benzonitrile] | < 0.1 | < 0.1 |
| COc1nc(Nc2nccc(-c3ccc(OC4CCOCC4)c(C#N)c3)n2)ccc1C(=O)N1C2COCC1CC(O)C2 (stereo not shown) [Example 17, 5-(2-[[5-([7-hydroxy-3-oxa-9-azabicyclo[3.3.1]nonan-9-yl]carbonyl)-6-methoxypyridin-2-yl]amino]pyrimidin-4-yl)-2-(oxan-4-yloxy)benzonitrile] | < 0.1 | < 0.1 |
| COc1nc(Nc2nccc(-c3ccc(OC4CCOCC4)c(C#N)c3)n2)ccc1C(=O)NC1CN2CCC1CC2 (stereo not shown) [Example 21, 6-((4-(3-cyano-4-((tetrahydro-2H-pyran-4-yl)oxy)phenyl)pyrimidin-2-yl)amino)-2-methoxy-N-(quinuclidin-3-yl)nicotinamide] | < 0.1 | < 0.1 |
| COc1nc(Nc2nccc(-c3ccc(OC4CCOCC4)c(C#N)n3)n2)ccc1C(=O)NC1CN2CCC1CC2 (stereo not shown) [Example 29, N-[1-azabicyclo[2.2.2]octan-3-yl]-6-([4-[6-cyano-5-(oxan-4-yloxy)pyridin-2-yl]pyrimidin-2-yl]amino)-2-methoxypyridine-3-carboxamide] | < 0.1 | < 0.1 |
